# In patent publication US20030148259A1, “Method of identifying insulin secretion stimulating compounds, and the use of such compounds in treating insulin-secretion related disorders” (priority 2002, published 2003):
# Ends that are not written are not given here.
# Assays:
# INS-1E cells [1] = experiment: Insulin release from INS-1E cells (insulin ELISA); format: cell-based, rat
# Protocol: Glucose-responsive clonal insulinoma cells (INS-1E) were cultured in RPMI-1640 medium supplemented with FBS (5%, v/v), penicillin (50 i.u. /ml), streptomycin (50 μg/ml), 2-mercaptoethanol (50 μM), HEPES (10 mM) and sodium pyruvate (1 mM) (Maechler, P. et al., IUBMB.Life 50, 27-31(2000). Medium was changed every other day.
# INS-1E cells (200,000/ well) were seeded in 24-well plates and cultured for 6-7 days before using them for insulin release assay. On the day of experiment, cells were incubated in RPMI without glucose for 2 hours. Cells attached to the wells were then washed three times with warm (37° C.) medium (KRBH) containing (in mM): NaCl 140, NaHCO3 2, KCl 3.6, NaH2PO4 0.5, MgSO4 0.5, HEPES 10, CaCl2, 1.5, BSA 0.1% and incubated for 30 minutes at 37°. Cells were then incubated with 500 μl of the test solutions, by adding solution to one well at a time, every 20 sec. After one hour of incubation, 200 μl of supernatant was transferred to Eppendorf tubes, again one well at a time, every 20 sec. The collected materials were then centrifuged and supernatants were used for insulin ELISA.
# cAMP-PDEs = experiment: Phosphodiesterase assay (cAMP-PDE activity in insulinoma cell fractions); format: biochemical, rat; details: for inhibition of cAMP-PDEs: methylxanthine 2.5 mM, FIG. 8D
# Protocol: Rat insulinoma cells were detached from the flasks by trypsin-EDTA. The cells were homogenized in Tris buffer containing (in mM): Tris 10, sucrose 250, EDTA 1.0, phenylmethylsulphonyl fluoride 0.01 and benzamidine 1.0The homogenates were centrifuged (48,000 g, 20 min, 4° C.). Both soluble extracts and the pellet were assayed for cAMP-PDE activity with 0.5 μM 2,8-[^3H]-cyclic AMP as substrate (see Ahmad, M. et al., Br.J.Pharmacol., 129, 1228-1234 (2000) and Thompson, W. J. and Appleman, M. M., Biochemistry, 10, 311-316 (1971)). Assays were performed by the two-step radiometric assay under linear rate formation of product and where less than 10% of substrate is utilized. Activity was expressed as pmol/min/ml and percentage inhibition of the control value.
# β-cells = experiment: Screening for CICR-active agents by periodic amplification of Ca2+ signals in single β-cells (fura-2 microfluorometry); format: cell-based, mouse
# mouse islets = experiment: Insulin release from perifused islets (radio immunoassay); format: cell-based; details: for stimulation of insulin secretion from islets: 2.5 mM caffeine, 6 μM MBED, FIG. 6; for insulin secretion rate: 40-min stimulation
# Protocol: Normal lean mice (BALB/c, Bomholtgard, Ry, Denmark) weighing 20-25 g were starved overnight and islets isolated by collagenase digestion and dextran purification method (Shi, C. L., Cell Transplant. 6, 33-37 (1997)). Islets were then cultured overnight in RPMI 1640 medium containing 10% FBS, 11.2 mM glucose, 60 i.u./ml penicillin and 60 μg/ml gentamicin, in a water-saturated atmosphere of air and 5% CO2.
# Groups of 50 islets were transferred to a perifusion chamber housed in an infant incubator at 37° C. They were perifused at a rate of 1 ml/ min with Krebs-Ringer bicarbonate buffer supplemented with 20 mM HEPES, 0.1% BSA, glucose and drugs as required. The buffer was continuously gassed with 95% 02 and 5% CO2. The islets were perifused for 30 min with this medium containing 2 mM glucose, followed by a 40-min stimulation with 11.2 mM glucose alone (control), or 11.2 mM glucose plus drugs. During the last five minutes of perifusion with 2 mM glucose, three samples of effluent were collected to measure basal rate of insulin secretion. After switching to the 11.2 mM glucose the effluent was sampled every minute for the first five minutes and then at the intervals of 5 minutes. The average rate of insulin secretion (ng/min/50 islets) was calculated by integrating individual perifusion profile. Insulin was measured by radio immunoassay using crystalline mouse insulin as standard (Shi, C. L. cited above).
# S5 cells = experiment: Screening for CICR by periodic amplification of Ca2+ signals in S5 cells; format: cell-based, rat; details: MBED 50 μM, FIG. 4
# Protocol: A new type of β-cell, called the S5 cell, which is particularly suitable for use in screening CICR-active drugs in β-cells has been developed by the present inventor. The S5 cells can be obtained from INS-1E cells by adapting the latter to culture conditions where fetal bovine serum is reduced to 2.5% and 2-mercaptoethanol is increased to 500 μM. The S5 cells are more differentiated, more slowly growing than ordinary insulinoma cells, and performs more like normal β-cells.
# The S5 cells used in the examples below were obtained by adapting the cells to the above culture conditions over 37 passages. These cells were cultured in RPMI 1640, with L-Glutamine (Life Technologies: Catalog. No. 21875-034), supplemented with HEPES (10 mM, Life Technologies. Catalog. No. 15630-049), and sodium pyruvate (1 mM, Life Technologies. Catalog No. 11360-039). 2.5% (v/v) heat-inactivated fetal bovine serum was added to this medium and the medium was aliquoted in 50 ml tubes. To this medium, 500 μM 2-mercaptoethanol (Life Technologies. Catalog. No. 31350-010) and penicillin (50 i.u./ml), streptomycin (50 μg/ml) (Life Technologies. Catalog. No. 15070-063) was added immediately before the medium was used for culture. 2-mercaptoethanol (50 mM, stock) was aliquoted and stored frozen in 100 μl portions and was thawed just before use. […]
# INS-1E cells [2] = experiment: Confocal microscopy imaging of [Ca2+]i in fluo-3 loaded cells; format: cell-based, rat
# Protocol: INS-1E cells were incubated in medium containing 5 mM glucose and 5 μM fluo-3 AM for 30 minutes followed by 10 min in medium without fluo-3Cover slips were mounted in a superfusion chamber, which was superfused with physiological solution at 3 ml/min. A three-way solenoid valve system allowed for rapid exchange of solutions. The dead space of the system (from valve inlet to chamber) was -0.5 ml. The flow was increased to 6 ml/min 15 s prior to switching from control solution to experimental solutions and reduced back to 3 ml/min after return to normal solution. [Ca^2+]1 were recorded with a BioRad laser scanning confocal system (BioRad MRC 1024) attached to a Nikon Diaphot 200 inverted microscope equipped with Nikon Plan Apo 60×1.4 NA oil immersion objective. Fluo-3 was excited at 488 nm (15 mW krypton-argon mixed gas laser, intensity attenuated to 3%) and the emitted light was collected through a 522 nm narrow band filter. Images were obtained with the iris closed to the minimum size that was compatible with good image quality. For each image, 3× Kalman averaging was used. Images were stored and converted to pseudo-color images using Scion Image software (Scion Corporation, Maryland).
# Ratios were calculated using the initial fluorescence F0, and the observed fluorescence F using the equation R=F/F0, and these ratios were subsequently converted into [Ca^2+]i using the equation: [Ca^2+]i=RxKD/((KD/resting [Ca^2+]i)−R). […] Resting [Ca^2+]i in these cells under the conditions of experiment was 35 nM. All experiments were carried out at room temperature (25° C.).
# INS-1E cells [3] = experiment: Measurement of cAMP content; format: cell-based, rat; details: caffeine 0.25-3 mM
# Protocol: INS-1E cells (20000 per well) were cultured for three days in 24 well plates. On the day of the experiments cells were washed and incubated for 30 min at 37° C. in the KRBH buffer containing 3 mM glucose. Cells were then washed again and solutions containing 11.2 mM glucose and test substances were added. After 10 min, incubations were terminated by removing the medium and precipitating cell protein in 80% ice-cold ethanol. Cells were then scraped and all contents of the wells were transferred to tubes. After centrifugation at 14,000 rpm for five min, the supernatants were collected and freeze-dried over-night. The cAMP content in each sample was determined with a radio ligand-binding assay using a bovine heart cAMP-binding protein as described by Pyne, N. J. and Tolan, D., Pyne, S. in Biochem.J 328 (Pt 2), 689-694 (1997).
# [4] = Example 6, FIG. 3: 10 mM glucose
# [5] = methylxanthine 2.5 mM, 11.2 mM glucose, 1 hr, FIG. 8A/8C
compound,measurement,setting,value
C/C=C(/C)C(=O)O[C@H]1C(C)=C2[C@H]([C@@H]1OC(=O)CCCCCCC)[C@@](C)(OC(C)=O)C[C@H](OC(=O)CCC)[C@@]1(O)[C@H]2OC(=O)[C@@]1(C)O [thapsigargin],basal insulin secretion,INS-1E cells [1]; thapsigargin-treated (Ca2+-depleted) cells,not different compared to that in controls cells
same,effect on glucose-dependent caffeine-stimulated secretion,"INS-1E cells [1]; thapsigargin-treated (ER Ca2+ depleted) cells, caffeine 0.75 mM, FIG. 11A",significantly reduced but not abolished
O=C1CN(/N=C/c2ccc(-c3ccc([N+](=O)[O-])cc3)o2)C(O)=N1 [dantrolene],effect on glucose-dependent stimulation of insulin secretion by caffeine,"INS-1E cells [1]; dantrolene 75 μM, FIG. 11B",abolished
"Cn1c2cnccc2c2c(Br)c(O)c(Br)cc21 [MBED, 5,7-dibromo-6-hydroxy-9-methylpyrido[3,4-b]indole]",Cytosolic cAMP-PDE activity,cAMP-PDEs; MBED 5 μM,27.7 ± 2.5 pmol/min/mL
same,Membrane cAMP-PDE activity,cAMP-PDEs; MBED 5 μM,26.5 pmol/min/mL
same,Cytosolic cAMP-PDE activity,cAMP-PDEs; MBED 50 μM,31.6 ± 0.7 pmol/min/mL
same,Membrane cAMP-PDE activity,cAMP-PDEs; MBED 50 μM,23.2 pmol/min/mL
same,inhibition of PDEs,"cAMP-PDEs; MBED 5 and 50 μM, Table 1",did not inhibit PDEs
same,periodic amplified Ca2+ release in β-cells (summary of screening),β-cells,elicit periodic amplified Ca^2+ release
same,potency relative to caffeine in islets,mouse islets; 6 μM MBED vs 2.5 mM caffeine,clearly more potent than caffeine
same,reversal of stimulated secretion on wash out (lack of major toxic effect),mouse islets; 11.2 mM glucose,reversed completely on wash out
same,stimulation of insulin secretion from islets,mouse islets; 11.2 mM glucose,persistently stimulated both the first- and second-phases of insulin secretion
same,CICR (periodic amplification of Ca2+ signals),S5 cells,CICR can clearly be identified
same,potency relative to caffeine in increasing [Ca2+]i,INS-1E cells [2],more potent than caffeine
same,change in [Ca2+]i,"INS-1E cells [2]; MBED 50 μM, FIG. 7",increased [Ca^2+]i
same,potency in stimulating insulin secretion relative to caffeine,INS-1E cells [1]; 11.2 mM glucose,about 400 times
same,insulin secretion,"INS-1E cells [1]; MBED 6 μM, 3 mM glucose, FIG. 5A",no stimulation of insulin secretion
same,insulin secretion,"INS-1E cells [1]; MBED 6 μM, 11.2 mM glucose, FIG. 5A",almost doubled the insulin secretion
same,dose response of insulin secretion,"INS-1E cells [1]; MBED 0.1 to 100 μM, 11.2 mM glucose, FIG. 5B",stimulated insulin secretion in a does-dependent manner
ryanodine,effect on glucose-induced insulin secretion,"INS-1E cells [1]; 100 μM ryanodine, 1 hr exposure",did not alter the glucose-induced insulin secretion
same,insulin secretion rate (glucose-induced),"INS-1E cells [1]; 100 μM ryanodine, 1 hr exposure, n=4",193±11 ng/10^6 cell/hr
same,insulin secretion rate,INS-1E cells [1]; caffeine 0.75 mM plus 100 μM ryanodine,354±34 ng/10^6 cell/hr
Cn1c(=O)c2c(ncn2C)n(C)c1=O [caffeine],periodic amplified Ca2+ release in β-cells (summary of screening),β-cells,elicit periodic amplified Ca^2+ release
same,periodic amplification of Ca2+ signals (CICR),β-cells; [4],gave rise to periodic amplifications of Ca^2+ signals
same,insulin secretion rate,mouse islets; 11.2 mM glucose,5.06±1.17 ng/min/50 islets
same,stimulation of insulin secretion from islets,mouse islets; 11.2 mM glucose,persistently stimulated both the first- and second-phases of insulin secretion
same,effect on cAMP content,INS-1E cells [3],did not increase cAMP content
same,change in [Ca2+]i,"INS-1E cells [2]; caffeine 5 mM, FIG. 10 upper panel",transient increase on [Ca^2+]i
same,concentration giving maximal stimulation of secretion,INS-1E cells [1]; FIG. 9B,0.25 to 0.75 mM
same,insulin secretion,"INS-1E cells [1]; caffeine 0.25 mM, FIG. 9B",near-maximal stimulation of insulin secretion
same,insulin secretion,"INS-1E cells [1]; caffeine 0.75 mM, KATP channel bypassed by diazoxide and KCl, FIG. 8B",Stimulation of insulin secretion by caffeine (0.75 mM) was observed
same,insulin secretion rate,"INS-1E cells [1]; caffeine 0.75 mM, without ryanodine",328±22 ng/10^6 cell/hr
same,insulin secretion,"INS-1E cells [1]; caffeine 2.5 mM, 3 mM glucose, 1 hr, FIG. 8A",did not alter insulin secretion
same,insulin secretion,INS-1E cells [1]; [5],stimulated secretion
Cn1c(=O)c2ncn(C)c2n(C)c1=O [isocaffeine],inhibition of cAMP-PDEs,cAMP-PDEs,did not inhibit cAMP-PDEs
same,periodic amplification of Ca2+ signals (CICR),β-cells; [4],gave rise to periodic amplifications of Ca^2+ signals
same,insulin secretion rate,mouse islets; 11.2 mM glucose,1.36±0.35 ng/min/50 islets
same,stimulation of insulin secretion from islets,mouse islets; 11.2 mM glucose,no significant stimulatory effect
same,insulin secretion,INS-1E cells [1]; [5],stimulated insulin secretion significantly
"Cn1cnc2c(=O)[nH]c(=O)n(C)c21 [3,9-dimethylxanthine]",inhibition of cAMP-PDEs,cAMP-PDEs,slightly less potent than caffeine in inhibiting cAMP-PDEs
same,insulin secretion rate,mouse islets; 11.2 mM glucose,2.76±0.81 ng/min/50 islets
same,stimulation of insulin secretion from islets,mouse islets; 11.2 mM glucose,no significant stimulatory effect
same,insulin secretion,INS-1E cells [1]; [5],equally effective as caffeine in stimulating insulin secretion
"glucagons-like peptide 1: test substance glucagons-like peptide 1 (HAEGTFTSDVSSYLEGQAAKEFIAWLVKGR; ends and bridges not checked; UniProt P01275 98-127, looked up)",periodic amplification of Ca2+ signals (CICR),"β-cells; Example 5, FIG. 2: 30 mM KCl, 10 μM D600 or verapamil, 13 mM glucose",gave rise to periodic amplification of Ca^2+ signals
